Assay [1] relates to matrix remodeling genes (mmp9, mmp16, mmp12, mmp2, mmp14). Nature of the assay: Expression of matrix remodeling genes in organotypic cortical brain slice cultures. It counts as cell-based, mice. How it is done:
(§1) The treatment of organotypic cortical brain slice cultures from adult mice with Compound A for 48 h was associated with reductions in expression of matrix remodeling genes (mmp9, mmp16, mmp12; n=3-9, see FIG. 1A showing results of dosing of Compound A at 5 nM, 50 nM, 500 nM, and 5 μM) and total MMP12 protein (n=3-6, see FIG. 1B showing results of dosing of Compound A at 5 nM, 50 nM, 500 nM, and 5 μM).
(§2) The treatment of organotypic cortical brain slice cultures from adult mice with Compound B for 48 h was associated with reductions in expression of cytokine genes (egfr, i16ra, csf1r, illr1, plekho2; n=3, see FIG. 3A showing results of dosing of Compound B at 2 μM, and 20 μM) and matrix remodeling genes (mmp12, mmp2, mmp16, mmp14; n=3, see FIG. 3B showing results of dosing of Compound B at 2 μM, and 20 μM).
(§3) The treatment of organotypic brain mice cultures from adult mice with Compound C for 72 h was associated with reductions in expression of cytokine genes (egfr, i16ra, csf1r, plekho2; n=2, See FIG. 5A showing results of dosing of Compound C at 0.1 μM, 0.3 μM, and 10 μM), matrix remodeling genes (mmp12, mmp16; n=2, See FIG. 5B for results of dosing of compound C at 0.1 μM, 0.3 μM, and 10 μM), and astrocyte genes (egfr, ai464131, gdpd2, adh1l1; n=2, See FIG. 5C for results of dosing of compound C at 0.1 μM, 0.3 μM, and 10 μM), and increases in expression of neuronal marker genes (tbr1, dlx1, slc17a6, islr2; n=2, See FIG. 5D for results of dosing of compound C at 0.1 μM, 0.3 μM, and 10 μM).

In another assay the test system is MMP12 protein. Nature of the assay: Total MMP12 protein in organotypic cortical brain slice cultures. It counts as cell-based. To be noted: organotypic cortical brain slice cultures from adult mice, 48 h, 5 nM, 50 nM, 500 nM, 5 μM; significant dose-dependence; FIG. 1B. How it is done: as §1
Another assay deals with IL-33. Briefly: Pro-inflammatory cytokine IL-33 in organotypic cortical slice cultures. Format: cell-based, mice. Particulars: 48 h, 50 nM, 500 nM, 5 μM, FIG. 2B. The method, then:
(§4) The treatment of organotypic cortical slice cultures with Compound A for 48 h was associated with reductions in expression of cytokine genes (cx3cl1, tgfbr2, i14ra, tgfb1, tnfrsf10b, csf1r, egfr, fit1, flt4, ccl12; n=3-9, see FIG. 2A showing results of dosing of Compound A at 5 nM, 50 nM, 500 nM, and 5 μM) and pro-inflammatory cytokines like IL-33 (n=3-6, see FIG. 2B showing results of dosing of Compound A at 50 nM, 500 nM, and 5 μM).

Another assay has as its system cytokine genes. Nature of the assay: Expression of cytokine genes in organotypic cortical slice cultures. Format: cell-based, mice. How it is done:
as §4, §2, §3

Another assay concerns astrocyte marker genes. Nature of the assay: Expression of astrocyte marker genes in organotypic cortical brain slice cultures. It counts as cell-based, mice. The method, then: (§5) The treatment of organotypic cortical brain slice cultures from adult mice with Compound B for 48 h was associated with reductions in expression of astrocyte marker genes (egfr, AI464131, Itga7, Gdpd2, Sox9, Aldh1l1, Entpd2; n=3, see FIG. 4A showing results of dosing of Compound B at 2 μM, and 20 μM) and increases in expression of neuronal marker genes (tbr1, Dlx1, Slc17a6, Islr2; n=3, see FIG. 4B showing results of dosing of Compound B at 2 μM, and 20 μM).
as §3

In another assay the test system is neuronal marker genes. Nature of the assay: Expression of neuronal marker genes in organotypic cortical brain slice cultures. Format: cell-based, mice. How it is done: as §5, §3

As to `Cc1nc(N2CCC3(CC2)CO[C@@H](C)[C@H]3N)c(CO)nc1-c1cccc(Cl)c1Cl` [Compound A], the “expression of matrix remodeling genes (mmp9, mmp16, mmp12)” value in assay [1] (organotypic cortical brain slice cultures from adult mice, 48 h, 5 nM, 50 nM, 500 nM, 5 μM, significant dose-dependence, FIG. 1A) was “reductions”. Moreover, the “total MMP12 protein” value with MMP12 protein is recorded as “reductions”. Moreover, the “expression of pro-inflammatory cytokines like IL-33” value in the assay on IL-33 is listed as “reductions”. For the same compound, the “expression of cytokine genes (cx3cl1, tgfbr2, i14ra, tgfb1, tnfrsf10b, csf1r, egfr, fit1, flt4, ccl12)” value with cytokine genes (organotypic cortical slice cultures, 48 h, 5 nM, 50 nM, 500 nM, 5 μM, FIG. 2A) is on record as “reductions”.

Regarding `O=S(=O)(O)c1ccc2cc(/N=N/c3cc(S(=O)(=O)O)c4cccnc4c3O)ccc2c1` [Compound B], the “expression of astrocyte marker genes (egfr, AI464131, Itga7, Gdpd2, Sox9, Aldh1l1, Entpd2)” value in the assay on astrocyte marker genes (organotypic cortical brain slice cultures from adult mice, 48 h, 2 μM and 20 μM, FIG. 4A) is given as “reductions”. Also, the “expression of matrix remodeling genes (mmp12, mmp2, mmp16, mmp14)” value in assay [1] (organotypic cortical brain slice cultures from adult mice, 48 h, 2 μM and 20 μM, FIG. 3B) is “reductions”. Also, the “expression of neuronal marker genes (tbr1, Dlx1, Slc17a6, Islr2)” value with neuronal marker genes (organotypic cortical brain slice cultures from adult mice, 48 h, 2 μM and 20 μM, FIG. 4B) is recorded as “increases”. Moreover, in the assay on cytokine genes (organotypic cortical brain slice cultures from adult mice, 48 h, 2 μM and 20 μM, FIG. 3A), the “expression of cytokine genes (egfr, i16ra, csf1r, illr1, plekho2)” value is recorded as “reductions”.

On to `CC1(N)CCN(c2cnc3c(-c4cccc(Cl)c4Cl)n[nH]c3n2)CC1` [Compound C], for which the “expression of astrocyte genes (egfr, ai464131, gdpd2, adh1l1)” value in the assay with astrocyte marker genes (organotypic brain cultures from adult mice, 72 h, 0.1 μM, 0.3 μM, 10 μM, FIG. 5C) is given as “reductions”. Also, in assay [1] (organotypic brain cultures from adult mice, 72 h, 0.1 μM, 0.3 μM, 10 μM, FIG. 5B), the “expression of matrix remodeling genes (mmp12, mmp16)” value was “reductions”. Moreover, in the assay on neuronal marker genes (organotypic brain cultures from adult mice, 72 h, 0.1 μM, 0.3 μM, 10 μM, FIG. 5D), the “expression of neuronal marker genes (tbr1, dlx1, slc17a6, islr2)” value is given as “increases”. Also, the “expression of cytokine genes (egfr, i16ra, csf1r, plekho2)” value in the assay with cytokine genes (organotypic brain cultures from adult mice, 72 h, 0.1 μM, 0.3 μM, 10 μM, FIG. 5A) is “reductions”.

Source of the values: patent US20220296616A1, “SHP1 AND SHP2 INHIBITORS AND THEIR METHODS OF USE” (Tiaki Therapeutics Inc., priority 2019, published 2022).
